Values of other authors as cited in US20030194372A1, “Radioimaging probes and the use thereof” (priority 2000, published 2003).

Tested on: atheroma
Details: literature reports

CCC(Cc1c(I)cc(I)c(N)c1I)C(=O)O[C@H]1CC[C@@]2(C)C(=CC[C@H]3[C@@H]4CC[C@H]([C@H](C)CCCC(C)C)[C@@]4(C)CC[C@@H]32)C1 (stereo partly shown) [CI, cholesteryl iopanoate]
Accumulation in atheroma / atherosclerotic lesions: accumulated preferentially in atheroma relative to normal arterial tissue
